Data published in paper PMC8707461, “In Vitro and In Vivo Inhibition of MATE1 by Tyrosine Kinase Inhibitors” (Pharmaceutics, 2021).
Several values for one entry are separate records, joined by “and”; a condition that tells them apart may be missing. Identical values can stand only once. Like-named read-outs stand apart in the source and are kept apart here.

Experiments:
MATE1 [1] = target: T1, MATE1 (Homo sapiens, UniProt Q96FL8); experiment: [14C]TEA uptake in HEK293 cells overexpressing human MATE1; conditions: for inhibition at 10 µM: human; for inhibition of MATE1-mediated uptake of TEA (in words): TKI 10 µM
T1 sequence (Q96FL8 1-570): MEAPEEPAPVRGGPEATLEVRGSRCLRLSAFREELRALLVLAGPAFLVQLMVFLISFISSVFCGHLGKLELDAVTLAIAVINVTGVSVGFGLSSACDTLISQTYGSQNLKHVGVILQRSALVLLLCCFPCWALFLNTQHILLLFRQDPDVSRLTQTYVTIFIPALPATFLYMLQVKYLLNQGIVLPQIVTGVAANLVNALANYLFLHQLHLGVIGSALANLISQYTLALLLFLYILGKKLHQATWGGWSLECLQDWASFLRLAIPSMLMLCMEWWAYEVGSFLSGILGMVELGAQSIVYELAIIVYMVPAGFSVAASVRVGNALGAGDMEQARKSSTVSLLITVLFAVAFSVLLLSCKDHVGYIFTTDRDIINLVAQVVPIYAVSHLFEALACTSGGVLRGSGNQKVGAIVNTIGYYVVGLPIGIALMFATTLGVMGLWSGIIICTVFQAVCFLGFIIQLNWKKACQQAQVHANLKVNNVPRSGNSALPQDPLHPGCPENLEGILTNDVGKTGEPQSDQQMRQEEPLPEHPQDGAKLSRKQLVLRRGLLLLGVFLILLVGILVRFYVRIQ
Description: (§1) Uptake experiments in HEK293 cells overexpressing mouse (m) and human (h) OCT2 or MATE1 were performed with radiolabeled tetraethylammonium (TEA) as the model substrate, using standard methods in the presence or absence of TKIs. The cell culture and uptake conditions for cells expressing mMATE1 or hMATE1 were described previously. […] Since the inhibitory potential of various xenobiotics against OCT2 and MATE1 is dependent on preincubation with perpetrator drugs, a 15-min preincubation period with the TKIs was employed unless stated otherwise. All results were normalized to uptake values in cells transfected with an empty vector or DMSO-treated groups.
(§2) MATE1-overexpressed cells were pre-incubated with transport media containing 30 mM ammonium chloride for 20 min at 37 °C following previously published protocol (pH 7.4 for hMATE1 [17, 18, 19] and pH 8.4 for mMATE1 [20, 21]) to ensure interactions can be evaluated between outward-facing MATE1 and substrate uptake before adding inhibitors. Then, preincubation media was removed and cells were incubated with transport media (NH4Cl free) containing radiolabeled compounds. […] The uptake of TEA and metformin was measured by liquid scintillation counting, as described previously. For uptake studies involving platinum drugs, cells were collected with TrypLE, and the pellets were lysed overnight in 0.2% nitric acid. After sonication, total platinum levels were determined by flameless atomic absorption spectrometry.

MATE1 [2] = conditions: cited from earlier work
human OCT2 = target: T2, human OCT2 (Homo sapiens, UniProt O15244); experiment: [14C]TEA uptake in HEK293 cells stably transfected with human OCT2; assay type: cell-based; conditions: TKI 10 µM
T2 construct: host or cells: HEK293 (Flp-In system, pcDNA5/FRT)
T2 sequence (O15244 1-555): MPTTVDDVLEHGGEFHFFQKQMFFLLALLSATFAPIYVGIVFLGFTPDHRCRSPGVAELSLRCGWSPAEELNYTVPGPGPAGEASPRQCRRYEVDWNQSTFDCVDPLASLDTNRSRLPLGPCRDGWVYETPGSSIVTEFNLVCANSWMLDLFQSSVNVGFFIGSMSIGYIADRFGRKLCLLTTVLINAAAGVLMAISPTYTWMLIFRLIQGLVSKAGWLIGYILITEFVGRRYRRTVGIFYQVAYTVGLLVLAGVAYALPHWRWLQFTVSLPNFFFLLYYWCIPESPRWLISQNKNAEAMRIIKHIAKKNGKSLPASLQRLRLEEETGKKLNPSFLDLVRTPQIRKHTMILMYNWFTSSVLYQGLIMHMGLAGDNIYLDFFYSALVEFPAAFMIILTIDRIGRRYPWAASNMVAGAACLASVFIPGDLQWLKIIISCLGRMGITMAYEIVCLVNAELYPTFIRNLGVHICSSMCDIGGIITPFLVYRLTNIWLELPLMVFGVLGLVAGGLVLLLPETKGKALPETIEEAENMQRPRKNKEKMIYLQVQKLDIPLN
Description: as §1, §2

mouse MATE1 = target: T3, mouse MATE1 (Mus musculus, UniProt Q8K0H1); experiment: cell-based
T3 sequence (Q8K0H1 1-567): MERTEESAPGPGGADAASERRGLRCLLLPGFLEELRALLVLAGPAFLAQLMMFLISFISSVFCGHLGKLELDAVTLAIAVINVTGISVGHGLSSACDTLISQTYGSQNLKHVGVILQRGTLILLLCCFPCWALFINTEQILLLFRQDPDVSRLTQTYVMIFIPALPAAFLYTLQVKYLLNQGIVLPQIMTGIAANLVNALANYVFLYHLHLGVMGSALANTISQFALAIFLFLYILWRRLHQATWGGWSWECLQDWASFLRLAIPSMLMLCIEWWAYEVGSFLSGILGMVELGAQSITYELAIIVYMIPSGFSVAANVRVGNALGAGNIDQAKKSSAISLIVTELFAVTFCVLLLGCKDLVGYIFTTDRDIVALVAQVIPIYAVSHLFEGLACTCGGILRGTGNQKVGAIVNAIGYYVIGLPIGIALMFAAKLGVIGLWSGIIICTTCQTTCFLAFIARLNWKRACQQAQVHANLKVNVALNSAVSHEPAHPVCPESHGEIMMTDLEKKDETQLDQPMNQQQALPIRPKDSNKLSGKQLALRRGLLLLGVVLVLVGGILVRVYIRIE
Description: as §1, §2

MATE1 gene = MATE1 gene expression by RT-PCR in MATE1-overexpressing cells exposed to TKIs; assay type: cell-based, human
Source text: RNA was extracted using the Qiagen kit from treated cells in 12-well plates or kidney tissues obtained from untreated or treated mice. Taqman primers Hs00217320_m1 and Mm00840361_m1 were obtained from Thermo Fisher Scientific (Waltham, MA, USA) and used for the hMATE1 and mMATE1 genes. The primers Hs02786624_g1 and Mm99999915_g1 were used as the house-keeping control genes for hGAPDH and mGAPDH, respectively.

[3] = HEK293 cells overexpressing human MATE1, pH 7.4, probe [14C]TEA (tetraethylammonium), 2 µM
[4] = publicly available information, ref FDA/EMA or supplement refs 1-8
[5] = Mouse IC50, HEK293 cells overexpressing mouse MATE1

Row | SMILES | inhibition at 10 µM (MATE1 [1]; [3]) [%] | IC50 (MATE1 [2]; [4]) [µM] | other results
1 | C[C@@H](Oc1cc(-c2cnn(C3CCNCC3)c2)cnc1N)c1c(Cl)ccc(F)c1Cl [Crizotinib] |  | […] | inhibition at 10 µM (MATE1 [1]; pH 7.4): 96.8%
2 | C#Cc1cccc(Nc2ncnc3cc(OCCOC)c(OCCOC)cc23)c1 [Erlotinib] |  | […] | inhibition at 10 µM (MATE1 [1]; pH 7.4): 87%
3 | C=CC(=O)N1CCC[C@@H](n2nc(-c3ccc(Oc4ccccc4)cc3)c3c(N)ncnc32)C1 [Ibrutinib] |  |  | IC50 (MATE1 [1]): 1.03 µM; inhibition at 10 µM (MATE1 [1]; pH 7.4): 91.8%; IC50 (mouse MATE1): 51.5 µM
5 | CS(=O)(=O)CCNCc1ccc(-c2ccc3ncnc(Nc4ccc(OCc5cccc(F)c5)c(Cl)c4)c3c2)o1 [Lapatinib] |  | > 10 | inhibition at 10 µM (MATE1 [1]; pH 7.4): 38.7%
6 | Cc1cn(-c2cc(NC(=O)c3ccc(C)c(Nc4nccc(-c5cccnc5)n4)c3)cc(C(F)(F)F)c2)cn1 [Nilotinib] | 95.7 | […] | IC50 (mouse MATE1; [5]): 45.4 µM and 45.3 µM; expression of MATE1 (in words) (MATE1 gene): downregulated
7 | Cc1ccc(C(=O)Nc2ccc(CN3CCN(C)CC3)c(C(F)(F)F)c2)cc1C#Cc1cnc2cccnn12 [Ponatinib] |  | < 10 | inhibition at 10 µM (MATE1 [1]; pH 7.4): 84.9%
8 | N#CC[C@H](C1CCCC1)n1cc(-c2ncnc3[nH]ccc23)cn1 [Ruxolitinib] | 63 | < 10 | 
9 | CNC(=O)c1cc(Oc2ccc(NC(=O)Nc3ccc(Cl)c(C(F)(F)F)c3)cc2)ccn1 [Sorafenib] | 83.8 |  | influence on OCT2 function (in words) (human OCT2): no influence
10 | CCN(CC)CCNC(=O)c1c(C)[nH]c(/C=C2\C(=O)Nc3ccc(F)cc32)c1C [Sunitinib] |  |  | inhibition of MATE1-mediated uptake of TEA (in words) (MATE1 [1]): potently inhibiting; inhibition at 10 µM (MATE1 [1]; pH 7.4): 98%; influence on OCT2 function (in words) (human OCT2): potently inhibiting; IC50 (MATE1 [2]): […]
11 | C[C@@H]1CCN(C(=O)CC#N)C[C@@H]1N(C)c1ncnc2[nH]ccc12 [Tofacitinib] | 90.4 | ~10 | 
12 | CC[C@@H]1CN(C(=O)NCC(F)(F)F)C[C@@H]1c1cnc2cnc3[nH]ccc3n12 [Upadacitinib] | 77.2 |  | 
13 | C=CC(=O)N1CCC([C@@H]2CCNc3c(C(N)=O)c(-c4ccc(Oc5ccccc5)cc4)nn32)CC1 [Zanubrutinib] | 94.5 |  | 
14 | CN/C(=N/CCSCc1nc[nH]c1C)NC#N [cimetidine] |  |  | IC50 (mouse MATE1; [5]): > 50 µM

More lines, main results first:

Row | inhibition at 10 µM (MATE1 [1]; [3]) [%] | SMILES | IC50 (MATE1 [2]; [4]) [µM] | other results
15 | 89.6 | CN(C)C/C=C/C(=O)Nc1cc2c(Nc3ccc(F)c(Cl)c3)ncnc2cc1O[C@H]1CCOC1 [Afatinib] | < 10 | 
16 | 47.6 | Cn1cnc2c(F)c(Nc3ccc(Br)cc3F)c(C(=O)NOCCO)cc21 [Binimetinib] | > 50 | 
17 | 99.2 | COc1cc(Nc2c(C#N)cnc3cc(OCCCN4CCN(C)CC4)c(OC)cc23)c(Cl)cc1Cl [Bosutinib] | < 10 | inhibition of MATE1-mediated uptake of TEA (in words) (MATE1 [1]): potently inhibiting; influence on OCT2 function (in words) (human OCT2): potently inhibiting
18 | 95.8 | COc1cc2nccc(Oc3ccc(NC(=O)C4(C(=O)Nc5ccc(F)cc5)CC4)cc3)c2cc1OC [Cabozantinib] | < 10 | 
19 | 90.2 | Cc1ccc(Nc2nccc(N(C)c3ccc4c(C)n(C)nc4c3)n2)cc1S(N)(=O)=O [Pazopanib] | < 0.47 | 
20 | 75.6 | FC(F)(F)c1ccc(CNc2ccc(Cc3c[nH]c4ncc(Cl)cc34)cn2)cn1 [Pexidartinib] |  | 
21 | 94.5 | CO[C@]1(C(=O)N[C@@H](C)c2ccc(-n3cc(F)cn3)nc2)CC[C@H](c2nc(C)cc(Nc3cc(C)[nH]n3)n2)CC1 [Pralsetinib] |  | 
22 | 73 | Cc1cn(-c2cc(NC(=O)c3ccc(C)c(Nc4nccc(-c5cnccn5)n4)c3)cc(C(F)(F)F)c2)cn1 [Radotinib] |  | 
23 | 72.1 | CNC(=O)c1cc(Oc2ccc(NC(=O)Nc3ccc(Cl)c(C(F)(F)F)c3)c(F)c2)ccn1 [Regorafenib] | < 10 | influence on OCT2 function (in words) (human OCT2): no influence
24 | 51.9 | CCn1c(=O)c(-c2cc(NC(=O)Nc3ccccc3)c(F)cc2Br)cc2cnc(NC)cc21 [Ripretinib] |  | 
25 | 97.4 | COc1ccc(CN2C3CC2CN(c2ccc(-c4cc(OCC(C)(C)O)cn5ncc(C#N)c45)cn2)C3)cn1 [Selpercatinib] | 0.66 | 
26 | 90.3 | COc1cc2nccc(Oc3ccc(NC(=O)Nc4cc(C)on4)c(Cl)c3)c2cc1OC [Tivozanib] |  | 
27 | 96.1 | CC(=O)Nc1cccc(-n2c(=O)n(C3CC3)c(=O)c3c(Nc4ccc(I)cc4F)n(C)c(=O)c(C)c32)c1 [Trametinib] | 0.06 | 
28 | 96.3 | Cc1cc(Nc2ncnc3ccc(NC4=NC(C)(C)CO4)cc23)ccc1Oc1ccn2ncnc2c1 [Tucatinib] |  | 
29 | 99.5 | COc1cc2c(Nc3ccc(Br)cc3F)ncnc2cc1OCC1CCN(C)CC1 [Vandetanib] | < 10 | 
30 | 34.1 | CCCS(=O)(=O)Nc1ccc(F)c(C(=O)c2c[nH]c3ncc(-c4ccc(Cl)cc4)cc23)c1F [Vemurafenib] |  | 
